Reference: article PMC3310380 (Journal of Biomolecular Screening, 2010)

B1: Probe A (dsDNA)
DNA 1: GGGTAGCATATGCTACCC
DNA 2: GGGTAGCATATGCTACCC

Legend:
[1] = system: EBV genome copy number in Raji Burkitt lymphoma cells; assay: EBV genome maintenance assay in Raji cells; assay type: cell-based, Epstein-Barr virus; conditions: six days, 50 μM
EBNA1 DBD = EBNA1 DBD (Epstein-Barr virus, UniProt P03211 459-607); assay: EMSA
Sequence of EBNA1 DBD (P03211 459-607): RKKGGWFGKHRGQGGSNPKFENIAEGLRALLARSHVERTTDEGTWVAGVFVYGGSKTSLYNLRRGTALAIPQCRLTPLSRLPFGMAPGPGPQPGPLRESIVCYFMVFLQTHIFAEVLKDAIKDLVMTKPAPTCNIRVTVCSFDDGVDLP

| Molecule | EBV DNA copy number, of its original content relative to cellular actin [1] | binding result (EBNA1 DBD) |
| --- | --- | --- |
| NC(=O)NO [HU, hydroxyurea] | ~ 48% |  |
| B1 |  | binds |
